Earlier results, collected in paper PMC6394493 (Cancer Chemotherapy and Pharmacology, 2018).

System: pS6
Set-up: method as in PMID 25673697
Settings: patients with advanced solid tumors; cited from earlier work

In the case of CO[C@H]1C[C@@H]2CC[C@@H](C)[C@@](O)(O2)C(=O)C(=O)N2CCCC[C@H]2C(=O)O[C@H]([C@H](C)C[C@@H]2CC[C@@H](OCCO)[C@H](OC)C2)CC(=O)[C@H](C)/C=C(\C)[C@@H](O)[C@@H](OC)C(=O)[C@H](C)C[C@H](C)/C=C/C=C/C=C/1C [everolimus], the “changes in pS6 in skin biopsies” value is listed as “induce changes in pS6”.
